Structures are written as SMILES.

For 27 molecules, melting point results are on record in US6982348B2, “Aminoethanol derivatives” (Takeda Pharmaceutical Company Limited, priority 2001, dated 2006).

For `O=C(N[C@@H](Cc1ccc(C(F)(F)F)cc1)[C@H](O)c1ccc(F)cc1)c1ccc(C(F)F)c2ccccc12` [Example 64, 4-(difluoromethyl)-N-((1S,2R)-2-(4-fluorophenyl)-2-hydroxy-1-((4-(trifluoromethyl)phenyl)methyl)ethyl)-1-naphthalenecarboxamide], the melting point (as a rule, the temperature, or range, at which the solid turns liquid) was 212 to 213 °C. Then `O=C(N[C@H](Cc1ccc(C(F)(F)F)cc1)[C@@H](O)c1ccc(F)cc1)c1ccc(/C=C\c2ccccc2Cl)cc1` (racemic) [Example 96, 4-[(Z)-2-(2-chlorophenyl)ethenyl]-N-[(1RS,2SR)-2-(4-fluorophenyl)-2-hydroxy-1-[4-(trifluoromethyl)benzyl]ethyl]benzenecarboxamide], with 153 to 154 °C. As for `CC(C)(C)OC(=O)N[C@H](Cc1cccc(OC(F)(F)C(F)F)c1)[C@@H](O)c1ccc(F)cc1` (racemic) [Example 130, tert-butyl N-[(1RS,2SR)-2-(4-fluorophenyl)-2-hydroxy-1-[3-(1,1,2,2-tetrafluoroethoxy)benzyl]ethyl]carbamate], the figure is 145 to 146 °C; as for `Cn1cc(C(=O)N[C@H](Cc2ccc(C(F)(F)F)cc2)[C@@H](O)c2ccc(F)cc2)c2ccccc21` (racemic) [Example 98, N-[(1RS,2SR)-2-(4-fluorophenyl)-2-hydroxy-1-[4-(trifluoromethyl)benzyl]ethyl]-1-methyl-1H-indole-3-carboxamide], 129 to 131 °C; as for `O=C(N[C@H](Cc1ccc(F)cc1)[C@@H](O)c1ccc(C(F)(F)F)cc1)c1ccc(F)c2ccccc12` (racemic) [Example 213, 4-fluoro-N-((1RS,2SR)-1-((4-fluorophenyl)methyl)-2-hydroxy-2-(4-(trifluoromethyl)phenyl)ethyl)-1-naphthalenecarboxamide], 235 to 236 °C. Then `O=C(N[C@H](Cc1ccc(C(F)(F)F)cc1)[C@@H](O)c1ccc(F)cc1)c1ccc(F)cc1` (racemic) [Example 55, 4-fluoro-N-((1RS,2SR)-2-(4-fluorophenyl)-2-hydroxy-1-((4-(trifluoromethyl)phenyl)methyl)ethyl)benzamide], with 202 to 203 °C; and `O=C(N[C@H](Cc1cccc(C(=O)C(F)(F)C(F)F)c1)[C@@H](O)c1ccc(F)cc1)c1ccc(F)c2ccccc12` (racemic) [Example 348, 4-fluoro-N-[(1RS,2SR)-2-(4-fluorophenyl)-2-hydroxy-1-[3-(2,2,3,3-tetrafluoropropionyl)benzyl]ethyl]naphthalene-1-carboxamide], with 160 to 162 °C.

Regarding `O=C(N[C@H](Cc1cccc(S(=O)(=O)C(F)(F)F)c1)[C@@H](O)c1ccc(F)cc1)c1cccc2c1C=CCCC2` (racemic) [Example 280, N-((1RS,2SR)-2-(4-fluorophenyl)-2-hydroxy-1-{3-[(trifluoromethyl)sulfonyl]benzyl}ethyl)-6,7-dihydro-5H-benzo[a][7]annulene-1-carboxamide], the melting point lay within 156 to 157 °C. Then `O=C(N[C@H](Cc1cccc(OC(F)(F)C(F)F)c1)[C@@H](O)c1ccc(Cl)nc1)c1cccc2c1C=CCCC2` (racemic) [Example 329, N-[(1RS,2SR)-2-(6-chloropyridin-3-yl)-2-hydroxy-1-[3-(1,1,2,2-tetrafluoroethoxy)benzyl]ethyl]-6,7-dihydro-5H-benzo[a]cycloheptene-1-carboxamide], with 170 to 172 °C. For `COc1ccccc1-c1ccc([C@H](O)[C@@H](Cc2cccc(OC(F)(F)C(F)F)c2)NC(=O)c2cccc3c2C=CCCC3)cc1` (racemic) [Example 296, N-[(1RS,2SR)-2-hydroxy-2-(2′-methoxy[1,1′-biphenyl]-4-yl)-1-[3-(1,1,2,2-tetrafluoroethoxy)benzyl]ethyl]-6,7-dihydro-5H-benzo[a]cycloheptene-1-carboxamide], the melting point lay in the range of 148 to 150 °C. As for `O=C(N[C@H](Cc1ccc(C(F)(F)F)cc1)[C@@H](O)c1ccc(Cl)s1)c1cccc2c1C=CCCC2` (racemic) [Example 198, N-[(1RS,2RS)-2-(5-chloro-2-thienyl)-2-hydroxy-1-[4-(trifluoromethyl)benzyl]ethyl]-6,7-dihydro-5H-benzo[a]cycloheptene-1-carboxamide], the figure is 184 to 185 °C. As for `O=C(N[C@H](Cc1ccc(C(F)(F)F)cc1)[C@@H](O)c1ccc(F)cc1)c1cc(C(F)(F)F)cc(C(F)(F)F)c1` (racemic) [Example 86, N-((1RS,2SR)-2-(4-fluorophenyl)-2-hydroxy-1-((4-(trifluoromethyl)phenyl)methyl)ethyl)-3,5-bis(trifluoromethyl)benzamide], the figure is 150 to 151 °C; as for `O=C(N[C@H](Cc1ccc(C(F)(F)F)cc1)[C@@H](O)c1ccc(F)cc1)c1cccc2cc(F)ccc12` (racemic) [Example 39, 6-fluoro-N-[(1RS,2SR)-2 (4-fluorophenyl)-2-hydroxy-1-[4-(trifluoromethyl)benzyl]ethyl]naphthalene-1-carboxamide], 223 to 224 °C. With `O=C(N[C@H](Cc1ccc(C(F)(F)F)cc1)[C@@H](O)c1cccc2ccccc12)c1ccc(C(F)(F)F)cc1` (racemic) [Example 189, N-((1RS,2SR)-2-hydroxy-2-(1-naphthalenyl)-1-((4-(trifluoromethyl)phenyl)methyl)ethyl)-4-(trifluoromethyl)benzamide], the melting point was 232 to 233 °C.

`O=C(O)COc1ccc([C@@H](O)[C@H](Cc2cccc(OC(F)(F)C(F)F)c2)NC(=O)c2cccc3c2C=CCCC3)cc1` (racemic) [Example 251, (4-{(1RS,2SR)-2-[(6,7-dihydro-5H-benzo[a][7]annulen-1-ylcarbonyl)amino]-1-hydroxy-3-[3-(1,1,2,2-tetrafluoroethoxy)phenyl]propyl}phenoxy)acetic acid] showed a melting point of 119 to 120 °C.

As for `O=C(CCc1ccccc1)N[C@H](Cc1ccc(C(F)(F)F)cc1)[C@@H](O)c1cccc(Oc2ccccc2)c1` (racemic) [Example 208, N-((1RS,2SR)-2-hydroxy-2-(3-phenoxyphenyl)-1-((4-(trifluoromethyl)phenyl)methyl)ethyl)-3-phenylpropanamide], the melting point was in the range of 134 to 135 °C. Molecule `O=C(N[C@H](Cc1ccc(C(F)(F)F)cc1)[C@@H](O)c1cccc2ccccc12)c1cccc2ccccc12` (racemic) [Example 185, N-((1RS,2SR)-2-hydroxy-2-(1-naphthalenyl)-1-((4-(trifluoromethyl)phenyl)methyl)ethyl)-1-naphthalenecarboxamide] gave a melting point of 217 to 218 °C.

`Cc1cc(C[C@@H](NC(=O)c2ccc(F)c3ccccc23)[C@@H](O)c2ccc(F)cc2)cc(OC(F)(F)C(F)F)c1` (racemic) [Example 230, N-((1RS,2SR)-2-(4-fluorophenyl)-2-hydroxy-1-((5-methyl-3-(1,1,2,2-tetrafluoroethoxy)phenyl)methyl)ethyl)-4-fluoro-1-naphthalenecarboxamide] showed a melting point of 189 to 190 °C. Consider `CCOC(=O)N[C@H](Cc1cccc(OC(F)(F)C(F)F)c1)[C@@H](O)c1ccc(F)cc1` (racemic) [Example 129, ethyl N-[(1RS,2SR)-2-(4-fluorophenyl)-2-hydroxy-1-[3-(1,1,2,2-tetrafluoroethoxy)benzyl]ethyl]carbamate], for which the melting point was 113 to 114 °C. Consider `O=C(N[C@H](Cc1ccc(C(F)(F)F)cc1)[C@@H](O)c1ccc(Cl)s1)c1ccc(F)c2ccccc12` (racemic) [Example 197, N-[(1RS,2RS)-2-(5-chloro-2-thienyl)-2-hydroxy-1-[4-(trifluoromethyl)benzyl]ethyl]-4-fluoronaphthalene-1-carboxamide], for which the melting point lay in the range of 201 to 203 °C. Then `O=C(N[C@H](Cc1ccc(F)cc1)[C@@H](O)c1ccc(F)cc1)C1CCCCC1` (racemic) [Example 146, N-((1RS,2SR)-2-(4-fluorophenyl)-1-((4-fluorophenyl)methyl)-2-hydroxyethyl)cyclohexanecarboxamide], with 203 to 204 °C; and `CC(C)(C)OC(=O)N[C@H](Cc1cccc(C(F)C(C)(C)F)c1)[C@@H](O)c1ccc(F)cc1` (mixture of isomers) [Example 341, tert-butyl N-[(1RS,2SR)-1-[3-(1,2-difluoro-2-methylpropyl)benzyl]-2-(4-fluorophenyl)-2-hydroxyethyl]carbamate], with 148 to 149 °C; and `O=C(N[C@H](Cc1ccc(C(F)(F)F)cc1)[C@@H](O)c1ccc(F)cc1)c1ccc(CCc2ccc(Cl)cc2)cc1` (racemic) [Example 92, 4-[2-(4-chlorophenyl)ethyl]-N-[(1RS,2SR)-2-(4-fluorophenyl)-2-hydroxy-1-[4-(trifluoromethyl)benzyl]ethyl]benzenecarboxamide], with 211 to 212 °C. Then `O=C(NC(Cc1ccc(C(F)(F)F)cc1)C(O)c1ccc(F)cc1)c1ccc(-c2ccccc2)cc1` (racemic) [Example 20, N-[2-(4-fluorophenyl)-2-hydroxy-1-[[4-(trifluoromethyl)phenyl]methyl]ethyl]-4-phenylbenzamide], with 178 to 185 °C; and `O=C(CBr)N[C@H](Cc1ccc(C(F)(F)F)cc1)[C@@H](O)c1ccc(F)cc1` (racemic) [Example 78, 2-bromo-N-((1RS,2SR)-2-(4-fluorophenyl)-2-hydroxy-1-((4-(trifluoromethyl)phenyl)methyl)ethyl)acetamide], with 151 to 152 °C; and `O=C(N[C@H](Cc1ccc2c(c1)OC(F)(F)C(F)(F)O2)[C@@H](O)c1ccc(F)cc1)c1cccc2c1C=CCCC2` (racemic) [Example 270, N-{(1RS,2SR)-2-(4-fluorophenyl)-2-hydroxy-1-[(2,2,3,3-tetrafluoro-2,3-dihydro-1,4-benzodioxin-6-yl)methyl]ethyl}-6,7-dihydro-5H-benzo[a][7]annulene-1-carboxamide], with 184 to 185 °C.

For `O=C(N[C@H](Cc1ccc(C(F)(F)F)cc1)[C@@H](O)c1ccc(F)cc1F)c1ccc(F)c2ccccc12` (racemic) [Example 181, N-((1RS,2SR)-2-(2,4-difluorophenyl)-2-hydroxy-1-((4-(trifluoromethyl)phenyl)methyl)ethyl)-4-fluoro-1-naphthalenecarboxamide], the melting point is 194 to 195 °C.
